Test results published in ChEMBL document CHEMBL5321262, “Antiviral Activity of Cannabidiolic Acid and Its Methyl Ester against SARS-CoV-2” (J Nat Prod, 2023).
The source made the active and inactive calls.

Experiments:
SARS-CoV-2 [1] = test: Antiviral activity against SARS-CoV-2 variant Omicron BA.3 infected African green monkey Vero E6 cells assessed as reduction in virus-induced cytopathic effect preincubated with virus for 1 hr followed by infection with cells and measured after 72 hrs by microscopic analysis; type: functional, organism-based; details: Severe acute respiratory syndrome coronavirus 2, time 73.0 hrs
SARS-CoV-2 [2] = test: Antiviral activity against SARS-CoV-2 variant Omicron BA.4 infected African green monkey Vero E6 cells assessed as reduction in virus-induced cytopathic effect preincubated with virus for 1 hr followed by infection with cells and measured after 72 hrs by microscopic analysis; type: functional, organism-based; details: Severe acute respiratory syndrome coronavirus 2, time 73.0 hrs
SARS-CoV-2 [3] = test: Antiviral activity against SARS-CoV-2 variant Delta infected in African green monkey Vero E6 cells assessed as reduction in virus-induced cytopathic effect preincubated with virus for 1 hr followed by infection with cells and measured after 72 hrs by microscopic analysis; type: functional, organism-based; details: Severe acute respiratory syndrome coronavirus 2, time 73.0 hrs
SARS-CoV-2 [4] = test: Antiviral activity against SARS-CoV-2 variant Omicron BA.5 infected African green monkey Vero E6 cells assessed as reduction in virus-induced cytopathic effect preincubated with virus for 1 hr followed by infection with cells and measured after 72 hrs by microscopic analysis; type: functional, organism-based; details: Severe acute respiratory syndrome coronavirus 2, time 73.0 hrs
SARS-CoV-2 [5] = test: Antiviral activity against SARS-CoV-2 variant Omicron BA.2 infected in African green monkey Vero E6 cells assessed as reduction in virus-induced cytopathic effect preincubated with virus for 1 hr followed by infection with cells and measured after 72 hrs by microscopic analysis; type: functional, organism-based; details: Severe acute respiratory syndrome coronavirus 2, time 73.0 hrs
SARS-CoV-2 [6] = test: Antiviral activity against SARS-CoV-2 variant Omicron BA.1 infected in African green monkey Vero E6 cells assessed as reduction in virus-induced cytopathic effect preincubated with virus for 1 hr followed by infection with cells and measured after 72 hrs by microscopic analysis; type: functional, organism-based; details: Severe acute respiratory syndrome coronavirus 2, time 73.0 hrs
SARS-CoV-2 [7] = test: Antiviral activity against SARS-CoV-2 variant Omicron BA.1 infected in African green monkey Vero E6 cells assessed as reduction in viral replication at 75 uM measured at 72 hrs post-infection by qRT-PCR analysis; type: functional, organism-based; details: Severe acute respiratory syndrome coronavirus 2
SARS-CoV-2 [8] = test: Antiviral activity against SARS-CoV-2 variant Omicron BA.4 infected in African green monkey Vero E6 cells assessed as reduction in virus titers of progeny virus in supernatant measured after 72 hrs by CPE assay; type: functional, organism-based; details: Severe acute respiratory syndrome coronavirus 2, Omicron BA.4, Vero C1008, 72 h
SARS-CoV-2 [9] = test: Antiviral activity against SARS-CoV-2 variant Omicron BA.5 infected in African green monkey Vero E6 cells assessed as reduction in virus titers of progeny virus in supernatant measured after 72 hrs by CPE assay; type: functional, organism-based; details: Severe acute respiratory syndrome coronavirus 2, Omicron BA.5, Vero C1008, 72 h
SARS-CoV-2 [10] = test: Antiviral activity against SARS-CoV-2 variant Omicron BA.2 infected in African green monkey Vero E6 cells assessed as inhibition of virus titers of progeny virus in supernatant at 75 uM measured after 72 hrs by CPE assay relative to control; type: functional; details: Severe acute respiratory syndrome coronavirus 2, Omicron BA.2, Vero C1008
SARS-CoV-2 [11] = test: Antiviral activity against SARS-CoV-2 variant Omicron BA.5 infected in African green monkey Vero E6 cells assessed as reduction in viral replication at 75 uM measured at 72 hrs post-infection by qRT-PCR analysis; type: functional, organism-based; details: Severe acute respiratory syndrome coronavirus 2
SARS-CoV-2 [12] = test: Antiviral activity against SARS-CoV-2 variant Omicron BA.3 infected in African green monkey Vero E6 cells assessed as inhibition of virus titers of progeny virus in supernatant at 75 uM measured after 72 hrs by CPE assay relative to control; type: functional; details: Severe acute respiratory syndrome coronavirus 2, Omicron BA.3, Vero C1008
SARS-CoV-2 [13] = test: Antiviral activity against SARS-CoV-2 variant Omicron BA.5 infected African green monkey Vero E6 cells assessed as reduction in virus-induced cytopathic effect at 75 uM preincubated with virus for 1 hr followed by infection with cells and measured after 72 hrs by microscopic analysis; type: functional, organism-based; details: Severe acute respiratory syndrome coronavirus 2, time 73.0 hrs
SARS-CoV-2 [14] = test: Antiviral activity against SARS-CoV-2 variant Delta infected in African green monkey Vero E6 cells assessed as reduction in viral replication at 75 uM measured at 72 hrs post-infection by qRT-PCR analysis; type: functional, organism-based; details: Severe acute respiratory syndrome coronavirus 2
SARS-CoV-2 [15] = test: Antiviral activity against SARS-CoV-2 variant Omicron BA.4 infected African green monkey Vero E6 cells assessed as reduction in virus-induced cytopathic effect at 75 uM preincubated with virus for 1 hr followed by infection with cells and measured after 72 hrs by microscopic analysis; type: functional, organism-based; details: Severe acute respiratory syndrome coronavirus 2, time 73.0 hrs
SARS-CoV-2 [16] = test: Antiviral activity against SARS-CoV-2 variant Omicron BA.3 infected in African green monkey Vero E6 cells assessed as reduction in viral replication at 75 uM measured at 72 hrs post-infection by qRT-PCR analysis; type: functional, organism-based; details: Severe acute respiratory syndrome coronavirus 2
SARS-CoV-2 [17] = test: Antiviral activity against SARS-CoV-2 variant Delta infected in African green monkey Vero E6 cells assessed as inhibition of virus titers of progeny virus in supernatant at 75 uM measured after 72 hrs by CPE assay relative to control; type: functional; details: Severe acute respiratory syndrome coronavirus 2, Delta, Vero C1008
SARS-CoV-2 [18] = test: Antiviral activity against SARS-CoV-2 variant Omicron BA.1 infected in African green monkey Vero E6 cells assessed as reduction in virus-induced cytopathic effect at 75 uM preincubated with virus for 1 hr followed by infection with cells and measured after 72 hrs by microscopic analysis; type: functional, organism-based; details: Severe acute respiratory syndrome coronavirus 2, time 73.0 hrs
SARS-CoV-2 [19] = test: Antiviral activity against SARS-CoV-2 variant Omicron BA.3 infected in African green monkey Vero E6 cells assessed as reduction in virus titers of progeny virus in supernatant measured after 72 hrs by CPE assay; type: functional, organism-based; details: Severe acute respiratory syndrome coronavirus 2, Omicron BA.3, Vero C1008, 72 h
SARS-CoV-2 [20] = test: Antiviral activity against SARS-CoV-2 variant Delta infected in African green monkey Vero E6 cells assessed as reduction in virus titers of progeny virus in supernatant measured after 72 hrs by CPE assay; type: functional, organism-based; details: Severe acute respiratory syndrome coronavirus 2, Delta, Vero C1008, 72 h
SARS-CoV-2 [21] = test: Antiviral activity against SARS-CoV-2 variant Omicron BA.1 infected in African green monkey Vero E6 cells assessed as reduction in virus titers of progeny virus in supernatant measured after 72 hrs by CPE assay; type: functional, organism-based; details: Severe acute respiratory syndrome coronavirus 2, Omicron BA.1, Vero C1008, 72 h
SARS-CoV-2 [22] = test: Antiviral activity against SARS-CoV-2 variant Delta infected in African green monkey Vero E6 cells assessed as reduction in virus-induced cytopathic effect at 75 uM preincubated with virus for 1 hr followed by infection with cells and measured after 72 hrs by microscopic analysis; type: functional, organism-based; details: Severe acute respiratory syndrome coronavirus 2, time 73.0 hrs
SARS-CoV-2 [23] = test: Antiviral activity against SARS-CoV-2 variant Omicron BA.5 infected in African green monkey Vero E6 cells assessed as inhibition of virus titers of progeny virus in supernatant at 75 uM measured after 72 hrs by CPE assay relative to control; type: functional; details: Severe acute respiratory syndrome coronavirus 2, Omicron BA.5, Vero C1008
SARS-CoV-2 [24] = test: Antiviral activity against SARS-CoV-2 variant Omicron BA.3 infected African green monkey Vero E6 cells assessed as reduction in virus-induced cytopathic effect at 75 uM preincubated with virus for 1 hr followed by infection with cells and measured after 72 hrs by microscopic analysis; type: functional, organism-based; details: Severe acute respiratory syndrome coronavirus 2, time 73.0 hrs
SARS-CoV-2 [25] = test: Antiviral activity against SARS-CoV-2 variant Omicron BA.2 infected in African green monkey Vero E6 cells assessed as reduction in virus titers of progeny virus in supernatant measured after 72 hrs by CPE assay; type: functional, organism-based; details: Severe acute respiratory syndrome coronavirus 2, Omicron BA.2, Vero C1008, 72 h
SARS-CoV-2 [26] = test: Antiviral activity against SARS-CoV-2 variant Omicron BA.2 infected in African green monkey Vero E6 cells assessed as reduction in viral replication at 75 uM measured at 72 hrs post-infection by qRT-PCR analysis; type: functional, organism-based; details: Severe acute respiratory syndrome coronavirus 2
SARS-CoV-2 [27] = test: Antiviral activity against SARS-CoV-2 variant Omicron BA.2 infected in African green monkey Vero E6 cells assessed as reduction in virus-induced cytopathic effect at 75 uM preincubated with virus for 1 hr followed by infection with cells and measured after 72 hrs by microscopic analysis; type: functional, organism-based; details: Severe acute respiratory syndrome coronavirus 2, time 73.0 hrs
SARS-CoV-2 [28] = test: Antiviral activity against SARS-CoV-2 variant Omicron BA.1 infected in African green monkey Vero E6 cells assessed as inhibition of virus titers of progeny virus in supernatant at 75 uM measured after 72 hrs by CPE assay relative to control; type: functional; details: Severe acute respiratory syndrome coronavirus 2, Omicron BA.1, Vero C1008
SARS-CoV-2 [29] = test: Antiviral activity against SARS-CoV-2 variant Omicron BA.4 infected in African green monkey Vero E6 cells assessed as reduction in viral replication at 75 uM measured at 72 hrs post-infection by qRT-PCR analysis; type: functional, organism-based; details: Severe acute respiratory syndrome coronavirus 2
SARS-CoV-2 [30] = test: Antiviral activity against SARS-CoV-2 variant Omicron BA.4 infected in African green monkey Vero E6 cells assessed as inhibition of virus titers of progeny virus in supernatant at 75 uM measured after 72 hrs by CPE assay relative to control; type: functional; details: Severe acute respiratory syndrome coronavirus 2, Omicron BA.4, Vero C1008

C=C(C)[C@@H]1CCC(C)=C[C@H]1c1c(O)cc(CCC)cc1O [CANNABIDIVARIN]
inactive: Activity (SARS-CoV-2 [1]) | Activity (SARS-CoV-2 [2]) | Activity (SARS-CoV-2 [3]) | Activity (SARS-CoV-2 [4]) | Activity (SARS-CoV-2 [5]) | Activity (SARS-CoV-2 [6])

CCCCCc1cc(O)c2c(c1)OC(C)(CCC=C(C)C)C=C2 (stereo not given) [CANNABICHROMENE]
inactive: Activity (SARS-CoV-2 [1]) | Activity (SARS-CoV-2 [2]) | Activity (SARS-CoV-2 [3]) | Activity (SARS-CoV-2 [4]) | Activity (SARS-CoV-2 [5]) | Activity (SARS-CoV-2 [6])

CCCc1cc(O)c(C/C=C(\C)CCC=C(C)C)c(O)c1
inactive: Activity (SARS-CoV-2 [1]) | Activity (SARS-CoV-2 [2]) | Activity (SARS-CoV-2 [3]) | Activity (SARS-CoV-2 [4]) | Activity (SARS-CoV-2 [5]) | Activity (SARS-CoV-2 [6])

C=C(C)[C@@H]1CCC(C)=C[C@H]1c1c(O)cc(CCCCC)c(C(=O)O)c1O [CANNABIDIOLIC ACID]
45.4 µM: IC50 (SARS-CoV-2 [21])
35.1 µM: IC50 (SARS-CoV-2 [25])
active: Activity (SARS-CoV-2 [7]) | Activity (SARS-CoV-2 [11]) | Activity (SARS-CoV-2 [13]) | Activity (SARS-CoV-2 [14]) | Activity (SARS-CoV-2 [15]) | Activity (SARS-CoV-2 [16]) | Activity (SARS-CoV-2 [18]) | Activity (SARS-CoV-2 [22]) | Activity (SARS-CoV-2 [24]) | Activity (SARS-CoV-2 [26]) | Activity (SARS-CoV-2 [27]) | Activity (SARS-CoV-2 [29])
31.7 µM: IC50 (SARS-CoV-2 [19])
> 90%: inhibition at 75 µM (SARS-CoV-2 [10]) | inhibition at 75 µM (SARS-CoV-2 [12]) | inhibition at 75 µM (SARS-CoV-2 [17]) | inhibition at 75 µM (SARS-CoV-2 [23]) | inhibition at 75 µM (SARS-CoV-2 [28]) | inhibition at 75 µM (SARS-CoV-2 [30])
47.7 µM: IC50 (SARS-CoV-2 [8])
30.7 µM: IC50 (SARS-CoV-2 [20])
47.5 µM: IC50 (SARS-CoV-2 [9])

CCCCCc1cc(O)c(C/C=C(\C)CCC=C(C)C)c(O)c1C(=O)O [CANNABIGEROLIC ACID]
inactive: Activity (SARS-CoV-2 [1]) | Activity (SARS-CoV-2 [2]) | Activity (SARS-CoV-2 [3]) | Activity (SARS-CoV-2 [4]) | Activity (SARS-CoV-2 [5]) | Activity (SARS-CoV-2 [6])

C=C(C)[C@@H]1CCC(C)=C[C@H]1c1c(O)cc(CCCCC)cc1O [CANNABIDIOL]
inactive: Activity (SARS-CoV-2 [1]) | Activity (SARS-CoV-2 [2]) | Activity (SARS-CoV-2 [3]) | Activity (SARS-CoV-2 [4]) | Activity (SARS-CoV-2 [5]) | Activity (SARS-CoV-2 [6])

CCCCCc1cc(O)c(C/C=C(\C)CCC=C(C)C)c(O)c1 [CANNABIGEROL]
inactive: Activity (SARS-CoV-2 [1]) | Activity (SARS-CoV-2 [2]) | Activity (SARS-CoV-2 [3]) | Activity (SARS-CoV-2 [4]) | Activity (SARS-CoV-2 [5]) | Activity (SARS-CoV-2 [6])
